According to patent publication EP3492086B1, “PHARMACEUTICAL COMPOSITION COMPRISING ZEBULARINE (1-(BETA-D-RIBOFURANOSYL)-2(1H)-PYRIMIDINONE) FOR USE IN PROMOTING REGENERATION AND WOUND HEALING” (Uniwersytet Gdanski, priority 2017, dated 2019):

Key:
[1] = system: dorsal skin wounds, mice of the BALB/c strain; assay: Dorsal skin excision model, topical delivery, wound closure; assay type: in vivo
Procedure: The effect of topically delivered zebularine on wound healing was determined using the dorsal skin excision model. Six 2-month-old female mice of the BALB/c strain were used for the experiment. Prior to the injury, the mice were anaesthetized. The dorsal skin was shaved and disinfected. Two symmetrical full-thickness excisional wounds were made in the dorsum using a biopsy punch of 6 mm diameter. Ten microliter of zebularine suspension (200 mg per 1 ml of saline) was dropped directly onto the wound immediately after wounding and once daily for the next four days. Promptly after zebularine application, the wounds were covered with a transparent dressing, and next, the dressing was fastened with adhesive plaster wrapped around the mouse. An analogical experiment was performed for six mice of control group that were not treated with zebularine. The animal study protocol was approved by the Local Ethics Committee for Animal Experimentation at the University of Science and Technology in Bydgoszcz, Poland (Permit No. 49/2016).
The wounds were photographed on the day of injury (d0) and on the day 2, 4, 7, 9, 11, 14, and 18 after wounding. The wound closure progress was tracked by determining wound area using computer-assisted image analysis. […] Complete wound closure was observed on the day 11 for zebularine treated mice and on the day 18 for the control ones (Figure 13).

[2] = estimated (Ben-Kasus et al. 2005); cited from earlier work
[3] = system: mice; settings: 400 mg/kg body weight intraperitoneally for 78 consecutive days (Herranz et al. 2006); cited from earlier work
[4] = system: 5-methylcytosine; assay: Global DNA methylation in the injury/regeneration area (5-mC DNA ELISA); assay type: in vivo, mice; settings: day 7 following injury; zebularine treated versus control
Description: DNA methylation in promoter regions is one of key epigenetic mechanisms responsible for gene repression. In order to determine the zebularine demethylating effect on DNA in the regenerating tissues, the content of 5-methylcytosine was compared in the tissues collected from the rings surrounding the ear pinnae holes in the zebularine treated and control animals. For the purpose, the ear punched zebularine treated and control mice were sacrificed at the days 7, 14, 21, and 42 after injury. The ears were collected, and the rings surrounding the holes were excised with a 3 mm biopsy punch, following genomic DNA extraction from thus obtained tissues using DNeasy kit (Qiagen). The levels of 5-methylcytosine were estimated using 5-mC DNA ELISA Kit (ZYMO, D5325) in 100 ng aliquots of genomic DNA.

[5] = system: ear pinnae of the BALB/c 2-month-old female mice; assay: Ear pinnae hole closure (ear pinnae injury model, 2 mm through-and-through holes); assay type: in vivo
Procedure: In order to evaluate the regenerative effect of zebularine, through-and-through holes of 2 mm diameter were made in the ear pinnae of the BALB/c 2-month-old female mice using scissor style ear punch. The mice were randomly divided into two groups consisting of six individuals each. The mice of one group were intraperitoneally injected with 7 doses of zebularine dissolved in saline (50 mg/ml), 1000 mg/kg body weight, on the day of injury directly after punching, and 1, 2, 3, 4, 7, 10 days after injury. The second, control group, was administered with saline.
The experiment was repeated 8 times. Collectively, the experiment was performed for 47 zebularine treated and 48 saline (vehiculum) administered control mice. […] The mean ear hole areas determined on the day 42 post injury were 0.53+/-0.3 and 1.77+/-0.48 sq mm for zebularine treated and saline controls, respectively. The results expressed as percentage of wound closure correspond to 83.2% and 43.6% for the zebularine treated and control group, respectively (Figure 2).The timeline of regeneration process is presented in Figure 3. […] The distributions of ear hole areas on the day 42 after injury were plotted as dot diagrams, where each dot represents an individual ear (Figure 4). The diagrams not only show the biological variation in response to injury and zebularine treatment but clearly expose the contrast between the control and zebularine treated groups. […]

[6] = system: Cdkn2a, Msx1, Nanog, Sox2, Bdnf, Sox1, Nog, and Myt1l; assay: Expression of pluripotency, developmental and cell cycle genes in the injury/repair area (real-time PCR); assay type: in vivo; settings: day 7 after injury; zebularine treated versus control mice; most remarkable for Nanog and Sox2
Description: In order to determine the effect of zebularine on the expression of pluripotency, developmental and cell cycle genes, the transcript levels for a panel of selected genes including Cdkn2a, Msx1, Nanog, Sox2, Bdnf, Sox1, Nog, and Myt1l were examined in the injury/repair area, in zebularine treated and control mice at the day 7, 14, 21 and 42 following injury in addition to unwounded ear pinnae designated as day 0. For the purpose, the ear punched mice were sacrificed at selected time points, the ears were collected on RNAlater reagent (Qiagen), stored at -80 °C until the rings surrounding the holes were excised using a 3 mm biopsy punch, following RNA extraction from thus obtained tissues using RNeasy kit (Qiagen). The levels of selected transcripts were determined for 6 mice (8 ears) for each time point using real-time PCR quantitation and Tbp and Actb as the reference genes. […] The most remarkable changes were found for the pluripotency genes, Nanog and Sox2 (Figure 7).

[7] = 37°C, pH 7.4 (Cheng et al. 2003); cited from earlier work
[8] = system: laboratory mice; settings: GM284 topical delivery (US2009/0093528A1); XAV-939 (Bastakoty et al. 2015); 1,4-DPCA (Zhang et al. 2015); cited from earlier work

O=c1ncccn1[C@@H]1O[C@H](CO)[C@@H](O)[C@H]1O [zebularine, 1-(β-D-ribofuranosyl)-2(1H)-pyrimidinone]
decrease of the time of wound closure ([1]; 10 microliter of 200 mg/ml suspension after wounding and once daily for four days, 6 mm wounds): approximately 7 days | day of complete wound closure ([1]; 10 microliter of 200 mg/ml suspension, five applications, control day 18): 11 days | RNA incorporation relative to DNA incorporation [2]: 7 fold | toxic effects in mice [3]: No toxic effects | DNA methylation (5-methylcytosine content) in the injury/regeneration area [4]: significant decrease in DNA methylation | mean ear hole areas determined on the day 42 post injury ([5]; 1000 mg/kg body weight intraperitoneally, 7 doses (day 0, 1, 2, 3, 4, 7, 10), 47 mice, saline control 1.77+/-0.48): 0.53+/-0.3 sq mm | day after injury of maximal ear hole closure ([5]; 1000 mg/kg i.p., 7 doses): 35 days | day after injury from which significantly better ear hole closure was recorded ([5]; 1000 mg/kg i.p., 7 doses, versus saline control): 21 days | percentage of wound closure (ear hole closure area) ([5]; day 42 after injury, 1000 mg/kg i.p., 7 doses, control group 43.6%): 83.2% | time to almost complete closure of the ear pinnae hole ([5]; representative mouse, 1000 mg/kg i.p., 7 doses (Figure 1)): approximately 30 days | effect of subcutaneous delivery on ear pinnae hole closure ([5]; subcutaneous injections, 1000 mg/kg, 7 doses, day 42 (Figure 6)): statistically significant response but proved less effective than intraperitoneal delivery | expression of the selected transcripts in the injury/repair area [6]: Significantly enhanced expression | half-life in water [7]: 21.2 days

Nc1ncn([C@@H]2O[C@H](CO)[C@@H](O)[C@H]2O)c(=O)n1 [5-azacytidine, reference compound]
effect on ear hole closure (result in words) ([5]; 0.25 mg/kg body weight i.p., 7 times, day 42, 6 mice, compared with zebularine and saline): did not stimulate ear hole closure

CCC(C)(C)C(=O)C(=O)N1CCC[C@H]1c1nnc([C@@H]2CCCN2C(=O)C(=O)C(C)(C)CC)o1 [GM284]
ear hole closure reported in the literature (result in words) [8]: Ear hole closure

O=C(O)c1c[nH]c2c(ccc3cccnc32)c1=O [1,4-DPCA, 4-oxo-1H-1,10-phenanthroline-3-carboxylic acid]
ear hole closure reported in the literature (result in words) [8]: partial ear hole closure induction

Oc1nc(-c2ccc(C(F)(F)F)cc2)nc2c1CSCC2 [XAV-939]
ear hole closure reported in the literature (result in words) [8]: partial ear hole closure induction

CC1=C(/C=C/C(C)=C/C=C/C(C)=C/C(=O)O)C(C)(C)CCC1=O [4-keto RA, 4-keto retinoic acid, reference compound]
ear hole closure (result in words) ([5]; Example 4: i.p., zebularine 1000 mg/kg 7 times, RA or 4-keto RA 16 mg/kg 6 times, followed for 42 days): Partial ear hole closure
